Experimental data published in BindingDB's records for doi:10.7270/Q28G8J4C (Broad Institute, 2009).
Structures can show the parent of a compound that is named as a salt.

Molecular target: T1, POsterior Segregation (Caenorhabditis elegans, UniProt G5EF15)
T1 sequence (G5EF15 whole entry): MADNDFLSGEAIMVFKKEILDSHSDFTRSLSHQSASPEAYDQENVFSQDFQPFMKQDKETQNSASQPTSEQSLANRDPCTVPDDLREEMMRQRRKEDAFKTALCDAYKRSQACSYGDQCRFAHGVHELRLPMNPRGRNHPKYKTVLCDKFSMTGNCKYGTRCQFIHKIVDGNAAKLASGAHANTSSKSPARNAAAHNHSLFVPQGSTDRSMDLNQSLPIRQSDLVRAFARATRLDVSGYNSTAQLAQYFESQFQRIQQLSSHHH
Assay: disruptors of C. elegans POS-1 RNA interaction – biochemical, fluorescence polarization, dose response (AID 1964)

Structure (SMILES)	EC50 [µM]
COc1ccc(OC)c(N2C(=O)NC(=O)C(=Cc3c[nH]c4ccccc34)C2=O)c1 [(5E)-1-(2,5-dimethoxyphenyl)-5-(1H-indol-3-ylmethylene)pyrimidine-2,4,6(1H,3H,5H)-trione]	> 300
COC(=O)c1ccc(-n2c(C)cc(CN=Nc3nc(C)cc(=O)[nH]3)c2C)cc1 [SMR000364461]	> 300
CN(C)c1ccc(O)c2c1CC1CC3C(N(C)C)C(=O)C(C(N)=O)C(=O)[C@@]3(O)C(=O)C1C2=O (stereo partly drawn) [(2E,12aS)-2-[azanyl(oxidanyl)methylidene]-4,7-bis(dimethylamino)-10,11,12a-tris(oxidanyl)-4a,5,5a,6-tetrahydro-4H-tetracene-1,3,12-trione;hydrochloride]	> 300
C=CCSc1nnc(N2C(=O)C(=O)C(C(=O)c3ccco3)C2c2ccc(F)cc2)s1 (configuration not stated) [1-[5-(allylthio)-1,3,4-thiadiazol-2-yl]-5-(4-fluorophenyl)-4-(2-furoyl)-3-hydroxy-3-pyrrolin-2-one]	114
CC1(C)CC(=O)C2=C(C1)OC(=N)C(C#N)C2c1ccccc1 (configuration not stated) [2-amino-5-keto-7,7-dimethyl-4-phenyl-6,8-dihydro-4H-chromene-3-carbonitrile]	> 300
c1ccc(C2=Nc3nnnn3C(c3cccs3)C2)cc1 (configuration not stated) [5-Phenyl-7-thiophen-2-yl-4,7-dihydro-tetrazolo[1,5-a]pyrimidine]	> 300
COc1ccc(C2C(C(=O)c3ccco3)C(=O)C(=O)N2c2nnc(C)s2)cc1 (configuration not stated) [3-(furan-2-carbonyl)-4-hydroxy-2-(4-methoxyphenyl)-1-(5-methyl-1,3,4-thiadiazol-2-yl)-2H-pyrrol-5-one]	109
Cn1c2cc(=N)ccc-2c2ccc(N)cc2c1-c1ccccc1 [(3-amino-5-methyl-6-phenyl-phenanthridin-5-ium-8-yl)amine;bromide]	13.5
CSc1nncc(C(C)N=Nc2ccccc2)n1 (configuration not stated) [1-[3-(methylsulfanyl)-1,2,4-triazin-5-yl]ethanone phenylhydrazone]	41.3
Cc1ccc(Cl)c2c1=NC(=O)C=2NNc1ccccc1	18.6
CC(=O)N1CCN(c2ccc(NC=C3C(=O)NC(=O)N(Cc4ccccc4)C3=O)cc2)CC1 [MLS000041641]	> 300
COC(=O)c1[nH]c2cc(OC)c(OC)cc2c1CN=Nc1ccccc1 [methyl (3Z)-5,6-dimethoxy-3-[(2-phenylhydrazinyl)methylidene]indole-2-carboxylate]	20
O=C1Nc2ccccc2/C1=N/NC(=S)Nc1ccc(O)cc1 [1-(4-hydroxyphenyl)-3-[(2-oxidanylideneindol-3-yl)amino]thiourea]	16.3
O=C(Cc1nc2cc([N+](=O)[O-])ccc2[nH]c1=O)c1ccccc1 [6-Nitro-3-(2-oxo-2-phenyl-ethylidene)-3,4-dihydro-1H-quinoxalin-2-one]	20.1
CCCCOc1c(Br)cc(CN=O)cc1OCC [3-bromo-4-butoxy-5-ethoxy-benzaldoxime]	> 300
N#CC(C(=O)c1cc2ccccc2o1)c1nc2ccccc2s1 (configuration not stated) [(2Z)-3-(1-benzofuran-2-yl)-2-(3H-1,3-benzothiazol-2-ylidene)-3-oxidanylidene-propanenitrile]	> 300
Cn1c(=O)[nH]c(=O)c2c1nc(N=NC=C(Br)Cc1ccccc1)n2CCO [SMR000436442]	206
CN1C(=O)/C(=C/c2ccc(-c3ccccc3[N+](=O)[O-])o2)S/C1=N/c1ccc(Cl)c(C(=O)O)c1 [2-Chloro-5-[3-methyl-5-[1-[5-(2-nitro-phenyl)-furan-2-yl]-meth-(Z)-ylidene]-4-oxo-thiazolidin-(2Z)-ylideneamino]-benzoic acid]	36.3
COc1ccc(C(=O)CC=Nc2ccc([N+](=O)[O-])cc2C)cc1OC [(E)-1-(3,4-dimethoxyphenyl)-3-(2-methyl-4-nitro-anilino)prop-2-en-1-one]	54.6

Structure (SMILES)	EC50 [µM]
Cc1cc(CN=Nc2ccc([N+](=O)[O-])cn2)c(C)n1-c1ccc(C(=O)O)cc1 [4-{2,5-dimethyl-3-[2-(5-nitro-2-pyridinyl)carbonohydrazonoyl]-1H-pyrrol-1-yl}benzoic acid]	> 300
CCCOc1cccc(C2C(C(=O)c3ccco3)C(=O)C(=O)N2c2nnc(C)s2)c1 (configuration not stated) [3-(furan-2-carbonyl)-4-hydroxy-1-(5-methyl-1,3,4-thiadiazol-2-yl)-2-(3-propoxyphenyl)-2H-pyrrol-5-one]	51.9
CC(=N)C(C#N)C(=O)CSc1ncnc2ccccc12 (configuration not stated) [(E)-3-amino-2-(2-quinazolin-4-ylsulfanylacetyl)but-2-enenitrile]	> 300
COc1cccc(CN2C(=O)C3(C4=C(CCCC4=O)OC(=N)C3C#N)c3ccccc32)c1 (configuration not stated) [2-amino-1'-(3-methoxybenzyl)-2',5-dioxo-1',2',5,6,7,8-hexahydrospiro[chromene-4,3'-indole]-3-carbonitrile]	> 300
O=C(CC=Nc1ccc([N+](=O)[O-])cc1)c1ccc(Br)cc1 [(E)-1-(4-bromophenyl)-3-(4-nitroanilino)-2-propen-1-one]	> 300
O=C1CCCC2=Nc3cc(Cl)ccc3SC12 (configuration not stated) [MLS000333002]	18.4
O=NCc1cccn1-c1cccc(C(=O)O)c1 [3-[2-(hydroximinomethyl)pyrrol-1-yl]benzoic acid]	> 300
CCN(CC)CCNC=C1C(=O)NC(=O)N(Cc2ccccc2)C1=O [(5Z)-1-benzyl-5-[[2-(diethylamino)ethylamino]methylene]barbituric acid]	> 300
COc1cc(C2C3=C(CCCC3=O)OC(=N)C2C#N)ccc1OC(=O)N1CCOCC1 (configuration not stated) [4-(2-amino-3-cyano-5-oxo-5,6,7,8-tetrahydro-4H-chromen-4-yl)-2-methoxyphenyl morpholine-4-carboxylate]	> 300
N#CC1C(=N)OC2=C(C(=O)CCC2)C1c1ccccc1 (configuration not stated) [2-amino-5-keto-4-phenyl-4,6,7,8-tetrahydrochromene-3-carbonitrile]	> 300
Cc1c(C(=O)NN=Cc2ccco2)[nH][nH]c1=O	> 300
O=[N+]([O-])c1cc/c(=N\c2ccccc2O)c2no[nH]c1-2 [MLS001206694]	24.4
COc1ccc(C2C3=C(CC(C)CC3=O)OC(=N)C2C#N)c(OC)c1OC (configuration not stated) [2-amino-5-keto-7-methyl-4-(2,3,4-trimethoxyphenyl)-4,6,7,8-tetrahydrochromene-3-carbonitrile]	> 300
Oc1ccc(C=Nn2c(O)csc2=S)c(O)c1O [3-[[(E)-[2,3-bis(oxidanyl)-4-oxidanylidene-cyclohexa-2,5-dien-1-ylidene]methyl]amino]-2-sulfanylidene-1,3-thiazolidin-4-one]	5.17
Cc1ccc(C(=O)Cc2nc3cc(C)ccc3oc2=O)cc1 [(3Z)-3-[2-keto-2-(p-tolyl)ethylidene]-6-methyl-4H-1,4-benzoxazin-2-one]	7.64
O=NC1CC2(CC(N=O)C1N=O)OCCO2 (configuration not stated) [9-(hydroxyamino)-8-nitroso-1,4-dioxaspiro[4.5]dec-8-en-7-one oxime]	> 300
CCCCOc1cccc(C2C(C(=O)c3ccc(C)o3)C(=O)C(=O)N2c2nnc(C)s2)c1 (configuration not stated) [2-(3-butoxyphenyl)-3-(5-methylfuran-2-yl)carbonyl-1-(5-methyl-1,3,4-thiadiazol-2-yl)-4-oxidanyl-2H-pyrrol-5-one]	102
C=CCOc1cccc(C2C(C(=O)c3ccco3)C(=O)C(=O)N2Cc2ccco2)c1 (configuration not stated) [1-(2-furanylmethyl)-3-[2-furanyl(oxo)methyl]-4-hydroxy-2-(3-prop-2-enoxyphenyl)-2H-pyrrol-5-one]	> 300
